In PMC11370357 (bioRxiv, 2024):

Molecular target: T1, GPRC6A (Homo sapiens, UniProt Q5T6X5)
T1 sequence (Q5T6X5 19-926): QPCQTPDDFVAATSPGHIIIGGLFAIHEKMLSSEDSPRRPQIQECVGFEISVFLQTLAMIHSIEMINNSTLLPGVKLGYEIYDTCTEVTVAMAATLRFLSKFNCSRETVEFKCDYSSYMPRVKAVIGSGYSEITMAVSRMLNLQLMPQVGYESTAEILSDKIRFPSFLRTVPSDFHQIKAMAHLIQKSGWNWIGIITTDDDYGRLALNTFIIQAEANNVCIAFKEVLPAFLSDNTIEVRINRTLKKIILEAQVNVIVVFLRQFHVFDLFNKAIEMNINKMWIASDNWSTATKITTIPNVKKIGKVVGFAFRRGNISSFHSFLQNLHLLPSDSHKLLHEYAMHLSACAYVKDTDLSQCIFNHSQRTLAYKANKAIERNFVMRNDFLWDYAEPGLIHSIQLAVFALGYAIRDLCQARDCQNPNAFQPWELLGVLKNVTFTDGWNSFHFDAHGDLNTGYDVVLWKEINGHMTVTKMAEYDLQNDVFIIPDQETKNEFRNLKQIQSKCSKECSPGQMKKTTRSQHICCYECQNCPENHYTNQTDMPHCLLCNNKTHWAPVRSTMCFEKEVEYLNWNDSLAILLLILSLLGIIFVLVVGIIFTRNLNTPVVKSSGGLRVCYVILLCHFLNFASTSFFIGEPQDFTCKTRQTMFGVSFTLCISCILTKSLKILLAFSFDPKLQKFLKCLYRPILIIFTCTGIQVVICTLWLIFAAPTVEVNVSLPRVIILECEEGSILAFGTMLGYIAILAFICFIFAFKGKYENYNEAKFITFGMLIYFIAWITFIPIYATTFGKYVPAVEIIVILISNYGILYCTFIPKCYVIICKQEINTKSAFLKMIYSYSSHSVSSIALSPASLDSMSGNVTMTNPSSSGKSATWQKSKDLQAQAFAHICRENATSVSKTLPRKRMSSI
Assay type: cell-based

EC50: 284 µM
Structure (SMILES): CN(C)C(=N)N=C(N)N [metformin, 1,1-dimethylbiguanide]
